In brackets after ≈: the same amount, converted by molar mass.
Tests used:
Influenza A virus = assay: In vitro antiviral activity was evaluated in a plaque reduction assay against influenza A; assay type: functional, organism-based
Influenza B virus = assay: In vitro antiviral activity was evaluated in a plaque reduction assay against influenza B; assay type: functional, organism-based

Row | Structure (SMILES) | IC50 (Influenza A virus) [ng/mL] | IC50 (Influenza B virus) [ng/mL]
1 | CCCN(C)C(=O)[C@@H]1OC(C(=O)O)=C[C@H](N)[C@H]1NC(C)=O | 320 (≈ 1.07 µM) | 16000 (≈ 53.5 µM)
2 | CCCN(C)C(=O)[C@@H]1OC(C(=O)O)=C[C@H](NC(=N)N)[C@H]1NC(C)=O | 11 (≈ 0.0322 µM) | 2200 (≈ 6.44 µM)
3 | CC(=O)N[C@H]1[C@H]([C@H](O)[C@H](O)CO)OC(C(=O)O)=C[C@@H]1N | 470 (≈ 1.62 µM) | 20 (≈ 0.0689 µM)
4 | CCCNC(=O)[C@@H]1OC(C(=O)O)=C[C@H](N)[C@H]1NC(C)=O | – | 44000 (≈ 154 µM)
5 | CCCN(CCC)C(=O)[C@@H]1OC(C(=O)O)=C[C@H](NC(=N)N)[C@H]1NC(C)=O | 0.1 (≈ 0.000271 µM) | –
6 | CCCNC(=O)[C@@H]1OC(C(=O)O)=C[C@H](NC(=N)N)[C@H]1NC(C)=O | 280 (≈ 0.855 µM) | 3800 (≈ 11.6 µM)

Source: ChEMBL document CHEMBL1159157, “Novel inhibitors of influenza sialidase related to GG167 Synthesis of 4-amino and guanidino-4H-pyran-2-carboxylic acid-6-propylamides; selective inhibitors of influenza a virus sialidase” (Bioorg Med Chem Lett, 1996)
